Test results taken from publication PMC10090446, “Population pharmacokinetic analysis and dosing optimization of polymyxin B in critically ill patients” (Frontiers in Pharmacology, 2023).
Positions of bridges follow the written chain, without caps; N, C: chain ends. Non-standard residues stand in square brackets, D forms with d. Residues, ends and D or L forms follow the SMILES beside them. *: point of attachment. X1 = CC[C@H](C)CCCCC(=O)*; Dab = NCC[C@H](N)C(=O)O

Assay: Steady-state plasma concentrations of polymyxin B (total of B1, B2, B1-Ile) by LC-MS/MS
Type: in vivo
Details: human, iv, read-out: OUT (observed polymyxin B plasma concentration)
Source text: We gather data from critically ill patients (≥18 years old) who were given intravenous drip polymyxin B treatment with blood concentration monitoring at the hospital from November 2021 to September 2022. The attending physician decided to administer polymyxin B. At the same time, patients who received continuous renal replacement therapy (CRRT) (n = 10) or extracorporeal membrane oxygenation (ECMO) (n = 2) at the time of blood collection were excluded. Patients’ information, including gender, age, WT, serum creatinine (Scr), CCR, ALB, APACHE-II, infection diagnosis, and pathogenic bacteria, were obtained from the electronic system for medical records. CCR was generated by adopting the Cockcroft—Gault equation with WT and age ([Cucci et al., 2022]). The Ethical Committees of the Second Affiliated Hospital of the South China University of Technology authorized the study (K-2022-020-01).
Patients were treated with polymyxin B, and plasma samples were collected ≥ 48 h after the treatment. Each patient contributed clinical samples, of which 37.5% (n = 24) were sampled with troughs (within 1 h before administration), 35.9% (n = 23) were sampled with peaks (within 1 h after the end of the infusion), and 26.6% (n = 17) were sampled at 6-8 h after the infusion. The dosing regimens of polymyxin B were a loading dose of 100 mg–150 mg and a maintenance dose of 50 mg–75 mg q12h, and the infusion duration was about 1–2 h. In preparation for analysis, samples were centrifuged for 10 min at 3000 r min^-1 after collection, and the upper plasma after centrifugation was stored at −20°C.
According to previous studies, total polymyxin B1, polymyxin B2, and polymyxin B1-Ile concentrations in human blood plasma were quantified using LC-MS/MS ([Meng et al., 2016]; [Hee et al., 2017]). The standard used in our experiments was the USP standard with the batch number of R104F0. The chromatographic column was the Kinetex C18 (3 μm × 2.1 mm×100 mm. Phenomenex). A: B mobile phase was 0.1% formic acid to acetonitrile. With changes in the linear velocity ratio, gradient elution was as follows: 15% −15% B, 0–2.0 min; 15%–10% B, 2.01–4.0 min; 10%–30% B, 4.01–5.0 min; 15% B, 5.01 min; and 15%–15% B, 5.02–10 min. The flow rate was constrained to 0.8 mL min^-1, and the column temperature was set to 40°C. The parent/daughter ion mass ratios used in the mass spectrometry were m/z 602.6/241.2 (polymyxin B1 and B1-Ile) and m/z 595.6/202.1 (polymyxin B2). Plasma samples (100 μL) were collected from centrifuged blood samples, mixed with 500 μL precipitant (acetonitrile with 6.67% formic acid) and vortexed well for 1 min. The lower limit of quantification (LLOQ) of the bioanalytical method used for quantifying polymyxin B1, B2, and B1-Ile concentrations was 0.19, 0.02 and 0.02 mg L^-1, respectively. The linear relationships of polymyxin B1, B2, and B1-Ile concentrations in the range of 0.19–24.13 mg L^-1, 0.02–2.7 mg L^-1 and 0.02–2.38 mg L^-1 were considered good (R^2 = 0.99677, R^2 = 0.99656, R^2 = 0.99484) and the accuracy was within 95.3%–105.3%, 92.2%–104.8%, and 95.8%–105.4%. […] Finally, 200 μL of the supernatant from the centrifugation of the combination at 14,000 r min^-1 for 10 min was employed to measure the amounts of polymyxin B.

CC[C@H](C)CCCCC(=O)N[C@@H](CCN)C(=O)N[C@H](C(=O)N[C@@H](CCN)C(=O)N[C@H]1CCNC(=O)[C@H]([C@@H](C)O)NC(=O)[C@H](CCN)NC(=O)[C@H](CCN)NC(=O)[C@H](CC(C)C)NC(=O)[C@@H](Cc2ccccc2)NC(=O)[C@H](CCN)NC1=O)[C@@H](C)O [polymyxin B] (X1-[Dab]T[Dab][Dab][Dab][dF]L[Dab][Dab]T; lactam 4-C)
level at 47.67 h (50 mg, patient ID 2, TIME 47.67, DOSE 50 every 12 from 0 to 36, DUR 1, WT 56, CCR 34.05, ALB 30.1, APACHE 20, single sample): 3020 ng/mL
level at 50 h (50 mg, patient ID 6, TIME 50, DOSE 50 every 12 from 0 to 48, DUR 1, WT 60, CCR 81.34, ALB 36.6, APACHE 18, single sample): 4480 ng/mL
level at 300 h (50 mg, patient ID 7, TIME 300, DOSE 50 from 0, ADDL 25, II 12, DUR 1, WT 52, CCR 121.16, ALB 32.1, APACHE 21, single sample): 2640 ng/mL
level at 301 h (50 mg, patient ID 7, TIME 301, DOSE 50 from 0, ADDL 25, II 12, DUR 1, WT 52, CCR 121.16, ALB 32.1, APACHE 21, single sample): 7720 ng/mL
level at 306.5 h (50 mg, patient ID 7, TIME 306.5, DOSE 50 from 0, ADDL 25, II 12, DUR 1, WT 52, CCR 121.16, ALB 32.1, APACHE 21, single sample): 4180 ng/mL
level at 133.6 h (50 mg, patient ID 9, TIME 133.6, DOSE 50 from 0, ADDL 11, II 12, DUR 1, WT 55, CCR 34.79, ALB 30.8, APACHE 15, single sample): 3740 ng/mL
level at 139 h (50 mg, patient ID 9, TIME 139, DOSE 50 from 0, ADDL 11, II 12, DUR 1, WT 55, CCR 34.79, ALB 30.8, APACHE 15, single sample): 3180 ng/mL
level at 145 h (50 mg, patient ID 9, TIME 145, DOSE 50 from 0, ADDL 11, II 12, DUR 1, WT 55, CCR 34.79, ALB 30.8, APACHE 15, single sample): 2890 ng/mL
level at 195 h (50 mg, patient ID 15, TIME 195, DOSE 50 every 12 from 133 (DUR 1, ADDL 11), WT 50, CCR 35.85, ALB 29.5, APACHE 39, single measurement): 4600 ng/mL
level at 207 h (50 mg, patient ID 15, TIME 207, DOSE 50 every 12 from 133 (DUR 1, ADDL 11), WT 50, CCR 35.85, ALB 29.5, APACHE 39, single measurement): 2250 ng/mL
level at 266.25 h (50 mg, patient ID 15, TIME 266.25, DOSE 50 every 12 from 133 (DUR 1, ADDL 11), WT 50, CCR 35.85, ALB 29.5, APACHE 39, single measurement): 4870 ng/mL
level at 277 h (50 mg, patient ID 15, TIME 277, DOSE 50 every 12 from 133 (DUR 1, ADDL 11), WT 50, CCR 35.85, ALB 29.5, APACHE 39, single measurement): 2420 ng/mL
level at 169.25 h (50 mg, patient ID 16, TIME 169.25, DOSE 50 every 12 from 0 (DUR 2, ADDL 14), WT 65, CCR 75.18, ALB 32, APACHE 31, single measurement): 6980 ng/mL
level at 174 h (50 mg, patient ID 16, TIME 174, DOSE 50 every 12 from 0 (DUR 2, ADDL 14), WT 65, CCR 75.18, ALB 32, APACHE 31, single measurement): 2970 ng/mL
level at 179 h (50 mg, patient ID 16, TIME 179, DOSE 50 every 12 from 0 (DUR 2, ADDL 14), WT 65, CCR 75.18, ALB 32, APACHE 31, single measurement): 2460 ng/mL
level at 120 h (50 mg, patient ID 17, TIME 120, DOSE 50 every 12 from 0 (DUR 1, ADDL 10), WT 75, CCR 55.08, ALB 38.8, APACHE 22, single measurement): 4530 ng/mL
level at 121.48 h (50 mg, patient ID 17, TIME 121.48, DOSE 50 every 12 from 0 (DUR 1, ADDL 10), WT 75, CCR 55.08, ALB 38.8, APACHE 22, single measurement): 2350 ng/mL
level at 62.5 h (50 mg, patient ID 18, TIME 62.5, DOSE 50 at 0, 12, 24, 36, 48, 60, DUR 2, WT 80, CCR 169.94, ALB 41.5, APACHE 29, single measurement): 4860 ng/mL
level at 66 h (50 mg, patient ID 18, TIME 66, DOSE 50 at 0, 12, 24, 36, 48, 60, DUR 2, WT 80, CCR 169.94, ALB 41.5, APACHE 29, single measurement): 1800 ng/mL
level at 72 h (50 mg, patient ID 18, TIME 72, DOSE 50 at 0, 12, 24, 36, 48, 60, DUR 2, WT 80, CCR 169.94, ALB 41.5, APACHE 29, single measurement): 839 ng/mL
level at 97 h (75 mg, patient ID 12, TIME 97, DOSE 75 from 0, ADDL 9, II 12, DUR 1, WT 60, CCR 104.47, ALB 33.9, APACHE 24, single sample): 9560 ng/mL
level at 102 h (75 mg, patient ID 12, TIME 102, DOSE 75 from 0, ADDL 9, II 12, DUR 1, WT 60, CCR 104.47, ALB 33.9, APACHE 24, single sample): 4840 ng/mL
level at 108 h (75 mg, patient ID 12, TIME 108, DOSE 75 from 0, ADDL 9, II 12, DUR 1, WT 60, CCR 104.47, ALB 33.9, APACHE 24, single sample): 2990 ng/mL
level at 74.33 h (75 mg, patient ID 15, TIME 74.33, after DOSE 75 at 73 (DUR 1, ADDL 4, II 12), WT 50, CCR 35.85, ALB 29.5, APACHE 39, single measurement): 8900 ng/mL
level at 217 h (75 mg, patient ID 22, TIME 217, DOSE 75 every 12 from 0 (ADDL 18), DUR 1, WT 60, CCR 155.65, ALB 24.3, APACHE 30, single measurement): 3620 ng/mL
level at 222 h (75 mg, patient ID 22, TIME 222, DOSE 75 every 12 from 0 (ADDL 18), DUR 1, WT 60, CCR 155.65, ALB 24.3, APACHE 30, single measurement): 2060 ng/mL
level at 228 h (75 mg, patient ID 22, TIME 228, DOSE 75 every 12 from 0 (ADDL 18), DUR 1, WT 60, CCR 155.65, ALB 24.3, APACHE 30, single measurement): 1060 ng/mL
level at 60.5 h (patient ID 1, TIME 60.5, DOSE 100 at 0 then 50 every 12 to 48, DUR 1, WT 58, CCR 69.29, ALB 23.1, APACHE 30, single sample): 2270 ng/mL
